Measurements taken from US9738612B2, “Methylacryloyl benzimidazolone derivative and anti-tumour use thereof” (SHANGHAI NATURE STANDARD R&D AND BIOTECH CO., LTD, priority 2014, dated 2017).

Legend:
Test in all cases: Tumor-associated kinase inhibition test
Format in all cases: biochemical
ASK1(h) = molecular target: T1, ASK1(h) (Homo sapiens, UniProt Q99683); details: read-out: Inhibitory rate (%)
T1 construct: purchased Eurofins Pharma Discovery Services UK Limited (contract assay service)
Description: (§1) Eurofins Pharma Discovery Services UK Limited completed and reported this experiment.

Aurora-A(h) = molecular target: T2, Aurora-A(h) (Homo sapiens, UniProt O14965); details: read-out: Inhibitory rate (%)
T2 construct: purchased Eurofins Pharma Discovery Services UK Limited (contract assay service)
Description: as §1

BTK(h) = molecular target: T3, BTK(h) (Homo sapiens, UniProt Q06187); details: read-out: Inhibitory rate (%)
T3 construct: purchased Eurofins Pharma Discovery Services UK Limited (contract assay service)
Description: as §1

Blk(h) = molecular target: T4, Blk(h) (Homo sapiens, UniProt P51451); details: read-out: Inhibitory rate (%)
T4 construct: purchased Eurofins Pharma Discovery Services UK Limited (contract assay service)
Description: as §1

CDK3/cyclinE(h) = molecular target: T5, CDK3/cyclinE(h) (Homo sapiens, UniProt Q00526); details: read-out: Inhibitory rate (%)
T5 construct: purchased Eurofins Pharma Discovery Services UK Limited (contract assay service)
Description: as §1

CDK5/p35(h) = molecular target: T6, CDK5/p35(h) (Homo sapiens, UniProt Q00535); details: read-out: Inhibitory rate (%)
T6 construct: purchased Eurofins Pharma Discovery Services UK Limited (contract assay service)
Description: as §1

CHK1(h) = molecular target: T7, CHK1(h) (Homo sapiens, UniProt O14757); details: read-out: Inhibitory rate (%)
T7 construct: purchased Eurofins Pharma Discovery Services UK Limited (contract assay service)
Description: as §1

CHK2(h) = molecular target: T8, CHK2(h) (Homo sapiens, UniProt O96017); details: read-out: Inhibitory rate (%)
T8 construct: purchased Eurofins Pharma Discovery Services UK Limited (contract assay service)
Description: as §1

CK1δ(h) = molecular target: T9, CK1δ(h) (Homo sapiens, UniProt P48730); details: read-out: Inhibitory rate (%)
T9 construct: purchased Eurofins Pharma Discovery Services UK Limited (contract testing)
Description: as §1

DYRK2(h) = molecular target: T10, DYRK2(h) (Homo sapiens, UniProt Q92630); details: read-out: Inhibitory rate (%)
T10 construct: purchased Eurofins Pharma Discovery Services UK Limited (contract testing)
Description: as §1

EGFR(h) = molecular target: T11, EGFR(h) (Homo sapiens, UniProt P00533); details: read-out: Inhibitory rate (%)
T11 construct: purchased Eurofins Pharma Discovery Services UK Limited (contract testing)
Description: as §1

FAK(h) = molecular target: T12, FAK(h) (Homo sapiens, UniProt Q05397); details: read-out: Inhibitory rate (%)
T12 construct: purchased Eurofins Pharma Discovery Services UK Limited (contract testing)
Description: as §1

Fms(h) = molecular target: T13, Fms(h) (Homo sapiens, UniProt P07333); details: read-out: Inhibitory rate (%)
T13 construct: purchased Eurofins Pharma Discovery Services UK Limited (contract testing)
T13 sequence (P07333 20-972): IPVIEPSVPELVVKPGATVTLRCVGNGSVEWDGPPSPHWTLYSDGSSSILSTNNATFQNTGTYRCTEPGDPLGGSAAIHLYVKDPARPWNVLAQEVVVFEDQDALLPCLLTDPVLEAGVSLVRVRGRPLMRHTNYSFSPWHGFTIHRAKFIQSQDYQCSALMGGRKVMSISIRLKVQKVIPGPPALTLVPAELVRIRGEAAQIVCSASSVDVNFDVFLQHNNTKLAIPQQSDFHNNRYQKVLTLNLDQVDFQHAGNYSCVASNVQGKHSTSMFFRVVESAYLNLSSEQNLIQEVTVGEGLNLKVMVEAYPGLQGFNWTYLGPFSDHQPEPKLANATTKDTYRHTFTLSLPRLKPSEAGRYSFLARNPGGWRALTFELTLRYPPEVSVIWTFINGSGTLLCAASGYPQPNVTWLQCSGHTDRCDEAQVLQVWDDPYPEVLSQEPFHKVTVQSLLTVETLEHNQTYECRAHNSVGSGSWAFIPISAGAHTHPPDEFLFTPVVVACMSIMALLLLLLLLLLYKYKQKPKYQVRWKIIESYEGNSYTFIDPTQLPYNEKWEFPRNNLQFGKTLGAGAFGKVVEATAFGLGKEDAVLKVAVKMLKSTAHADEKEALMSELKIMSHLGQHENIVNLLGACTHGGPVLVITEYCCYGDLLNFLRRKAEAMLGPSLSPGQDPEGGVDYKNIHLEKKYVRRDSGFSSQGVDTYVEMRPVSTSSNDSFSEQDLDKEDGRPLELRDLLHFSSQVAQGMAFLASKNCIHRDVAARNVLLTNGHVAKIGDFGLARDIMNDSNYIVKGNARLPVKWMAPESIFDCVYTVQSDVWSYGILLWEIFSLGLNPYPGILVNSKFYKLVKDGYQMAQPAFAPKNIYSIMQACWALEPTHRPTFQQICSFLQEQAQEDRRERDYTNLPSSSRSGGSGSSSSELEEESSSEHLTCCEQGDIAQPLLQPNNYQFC
Description: as §1

GSK3β(h) = molecular target: T14, GSK3β(h) (Homo sapiens, UniProt P49841); details: read-out: Inhibitory rate (%)
T14 construct: purchased Eurofins Pharma Discovery Services UK Limited (contract testing)
T14 sequence (P49841 whole entry): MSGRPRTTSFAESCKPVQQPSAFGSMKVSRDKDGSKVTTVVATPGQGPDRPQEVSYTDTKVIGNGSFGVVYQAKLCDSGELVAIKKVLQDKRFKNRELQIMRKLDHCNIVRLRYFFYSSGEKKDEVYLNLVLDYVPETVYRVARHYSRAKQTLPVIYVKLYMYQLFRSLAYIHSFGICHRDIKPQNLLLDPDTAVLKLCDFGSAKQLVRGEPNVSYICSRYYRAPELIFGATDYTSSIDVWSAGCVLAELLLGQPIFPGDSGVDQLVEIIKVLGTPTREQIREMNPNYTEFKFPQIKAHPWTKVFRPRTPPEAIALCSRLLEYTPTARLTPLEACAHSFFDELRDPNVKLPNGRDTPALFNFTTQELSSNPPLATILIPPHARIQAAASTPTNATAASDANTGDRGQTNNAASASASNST
Description: as §1

JAK2(h) = molecular target: T15, JAK2(h) (Homo sapiens, UniProt O60674); details: read-out: Inhibitory rate (%)
T15 construct: purchased Eurofins Pharma Discovery Services UK Limited (contract testing)
Description: as §1

JNK1α1(h) = molecular target: T16, JNK1α1(h) (Homo sapiens, UniProt P45983); details: read-out: Inhibitory rate (%)
T16 construct: purchased Eurofins Pharma Discovery Services UK Limited (contract testing)
T16 sequence (P45983 1-384 isoform P45983-2): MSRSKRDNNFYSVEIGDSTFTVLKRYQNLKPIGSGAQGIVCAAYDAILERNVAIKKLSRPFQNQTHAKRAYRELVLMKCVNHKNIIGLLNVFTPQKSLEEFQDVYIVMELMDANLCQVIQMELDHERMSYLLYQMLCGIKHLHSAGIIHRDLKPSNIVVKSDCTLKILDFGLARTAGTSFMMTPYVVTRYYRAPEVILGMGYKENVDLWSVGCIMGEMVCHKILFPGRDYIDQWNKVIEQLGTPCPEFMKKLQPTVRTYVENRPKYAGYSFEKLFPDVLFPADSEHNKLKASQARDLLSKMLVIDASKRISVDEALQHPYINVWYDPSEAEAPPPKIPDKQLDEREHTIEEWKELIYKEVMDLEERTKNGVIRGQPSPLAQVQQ
Description: as §1

Lck(h)activated = molecular target: T17, Lck(h)activated (Homo sapiens, UniProt P06239); details: read-out: Inhibitory rate (%)
T17 construct: purchased Eurofins Pharma Discovery Services UK Limited
Description: as §1

MARK1(h) = molecular target: T18, MARK1(h) (Homo sapiens, UniProt Q9P0L2); details: read-out: Inhibitory rate (%)
T18 construct: purchased Eurofins Pharma Discovery Services UK Limited
Description: as §1

MEK1(h) = molecular target: T19, MEK1(h) (Homo sapiens, UniProt Q02750); details: read-out: Inhibitory rate (%)
T19 construct: purchased Eurofins Pharma Discovery Services UK Limited
Description: as §1

PDGFRβ(h) = molecular target: T20, PDGFRβ(h) (Homo sapiens, UniProt P09619); details: read-out: Inhibitory rate (%)
T20 construct: purchased Eurofins Pharma Discovery Services UK Limited
T20 sequence (P09619 33-1106): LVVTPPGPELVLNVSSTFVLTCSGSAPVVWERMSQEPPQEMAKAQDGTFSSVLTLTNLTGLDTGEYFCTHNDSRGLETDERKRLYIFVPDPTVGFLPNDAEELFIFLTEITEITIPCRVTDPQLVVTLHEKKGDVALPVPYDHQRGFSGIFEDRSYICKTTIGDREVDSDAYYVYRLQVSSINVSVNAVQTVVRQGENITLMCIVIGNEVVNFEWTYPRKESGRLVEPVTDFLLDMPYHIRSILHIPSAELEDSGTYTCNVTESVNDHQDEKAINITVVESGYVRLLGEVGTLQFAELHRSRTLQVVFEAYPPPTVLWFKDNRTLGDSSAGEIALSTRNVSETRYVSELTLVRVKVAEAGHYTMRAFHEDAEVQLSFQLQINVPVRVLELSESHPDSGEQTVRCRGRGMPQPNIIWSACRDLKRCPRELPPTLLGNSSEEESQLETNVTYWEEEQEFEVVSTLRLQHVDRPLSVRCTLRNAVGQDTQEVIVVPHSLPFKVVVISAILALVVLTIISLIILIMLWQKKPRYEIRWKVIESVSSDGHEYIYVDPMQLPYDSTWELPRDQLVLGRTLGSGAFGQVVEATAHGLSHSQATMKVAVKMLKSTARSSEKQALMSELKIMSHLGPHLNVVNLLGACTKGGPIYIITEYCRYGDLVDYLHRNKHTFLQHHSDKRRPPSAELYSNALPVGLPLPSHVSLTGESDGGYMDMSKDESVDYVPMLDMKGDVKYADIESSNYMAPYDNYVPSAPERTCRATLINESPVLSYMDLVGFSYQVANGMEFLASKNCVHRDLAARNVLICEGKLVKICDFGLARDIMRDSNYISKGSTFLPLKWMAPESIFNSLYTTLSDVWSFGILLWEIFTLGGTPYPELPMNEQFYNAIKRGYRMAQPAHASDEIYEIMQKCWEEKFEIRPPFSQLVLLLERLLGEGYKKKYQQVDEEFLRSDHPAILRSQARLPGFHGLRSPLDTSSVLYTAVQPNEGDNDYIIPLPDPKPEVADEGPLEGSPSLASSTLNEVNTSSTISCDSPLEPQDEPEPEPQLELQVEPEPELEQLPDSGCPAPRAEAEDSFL
Description: as §1

PDK1(h) = molecular target: T21, PDK1(h) (Homo sapiens, UniProt O15530); details: read-out: Inhibitory rate (%)
T21 construct: purchased Eurofins Pharma Discovery Services UK Limited
Description: as §1

[1] = molecular target: T22, PI3Kinase(p110α(H1047R)/p85α)(h) (Homo sapiens, UniProt P42336, H1047R); details: read-out: Inhibitory rate (%)
T22 construct: purchased Eurofins Pharma Discovery Services UK Limited (contract assay)
T22 sequence (P42336 whole entry H1047R): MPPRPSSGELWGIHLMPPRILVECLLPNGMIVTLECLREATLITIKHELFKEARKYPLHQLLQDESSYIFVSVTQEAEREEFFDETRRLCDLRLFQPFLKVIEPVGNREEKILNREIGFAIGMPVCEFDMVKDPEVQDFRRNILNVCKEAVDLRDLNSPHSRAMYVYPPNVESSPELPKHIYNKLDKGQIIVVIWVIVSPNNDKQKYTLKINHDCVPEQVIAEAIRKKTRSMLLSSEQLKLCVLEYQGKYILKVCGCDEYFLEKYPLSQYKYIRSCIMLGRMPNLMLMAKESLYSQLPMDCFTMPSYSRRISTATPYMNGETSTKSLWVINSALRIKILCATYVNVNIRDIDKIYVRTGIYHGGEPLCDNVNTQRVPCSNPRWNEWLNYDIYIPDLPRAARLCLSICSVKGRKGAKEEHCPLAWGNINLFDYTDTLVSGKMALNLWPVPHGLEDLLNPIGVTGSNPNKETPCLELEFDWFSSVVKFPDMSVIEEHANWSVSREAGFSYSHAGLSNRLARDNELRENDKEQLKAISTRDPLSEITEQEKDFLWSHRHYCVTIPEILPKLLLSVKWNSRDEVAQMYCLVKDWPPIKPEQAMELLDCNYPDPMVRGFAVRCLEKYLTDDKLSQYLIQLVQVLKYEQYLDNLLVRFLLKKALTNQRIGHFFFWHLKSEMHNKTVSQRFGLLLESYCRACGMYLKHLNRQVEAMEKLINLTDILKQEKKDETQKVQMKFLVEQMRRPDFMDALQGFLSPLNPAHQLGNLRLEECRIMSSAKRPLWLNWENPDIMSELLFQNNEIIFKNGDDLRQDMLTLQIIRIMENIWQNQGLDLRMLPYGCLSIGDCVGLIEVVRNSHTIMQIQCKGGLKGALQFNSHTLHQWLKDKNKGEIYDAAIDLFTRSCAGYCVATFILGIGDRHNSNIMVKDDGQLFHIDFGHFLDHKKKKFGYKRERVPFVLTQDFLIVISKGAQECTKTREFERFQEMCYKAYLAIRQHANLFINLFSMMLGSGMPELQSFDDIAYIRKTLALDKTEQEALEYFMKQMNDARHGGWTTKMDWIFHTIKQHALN
T22 sequence (P27986 whole entry partner): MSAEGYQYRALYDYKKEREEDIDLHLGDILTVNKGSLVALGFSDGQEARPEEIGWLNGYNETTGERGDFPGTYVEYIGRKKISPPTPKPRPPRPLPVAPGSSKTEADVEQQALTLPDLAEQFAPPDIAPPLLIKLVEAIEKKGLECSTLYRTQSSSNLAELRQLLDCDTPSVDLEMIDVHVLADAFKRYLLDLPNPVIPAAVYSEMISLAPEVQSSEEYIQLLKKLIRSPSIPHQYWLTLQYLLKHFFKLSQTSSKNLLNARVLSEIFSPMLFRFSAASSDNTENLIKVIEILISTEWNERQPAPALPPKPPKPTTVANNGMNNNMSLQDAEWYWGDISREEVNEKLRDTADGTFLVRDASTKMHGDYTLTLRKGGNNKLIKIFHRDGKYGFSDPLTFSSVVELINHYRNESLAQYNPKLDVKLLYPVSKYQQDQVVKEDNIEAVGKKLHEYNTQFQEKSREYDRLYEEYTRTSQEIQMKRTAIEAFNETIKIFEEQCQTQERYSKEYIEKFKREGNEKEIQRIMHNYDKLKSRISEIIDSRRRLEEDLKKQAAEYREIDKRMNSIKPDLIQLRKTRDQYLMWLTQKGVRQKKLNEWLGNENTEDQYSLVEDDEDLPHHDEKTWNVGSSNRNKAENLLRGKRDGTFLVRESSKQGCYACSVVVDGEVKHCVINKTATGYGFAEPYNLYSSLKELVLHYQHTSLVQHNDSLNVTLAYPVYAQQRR
Description: as §1

PI3Kinase(p110α/p65α)(h) = molecular target: T23, PI3Kinase(p110α/p65α)(h) (Homo sapiens, UniProt P42336); details: read-out: Inhibitory rate (%)
T23 construct: purchased Eurofins Pharma Discovery Services UK Limited (contract assay)
T23 sequence (P42336 whole entry): as the sequence (P42336 whole entry H1047R) above, with R1047H counted along it
Description: as §1

PI3Kinase(p110α/p85α)(h) = molecular target: T24, PI3Kinase(p110α/p85α)(h) (Homo sapiens, UniProt P42336); details: read-out: Inhibitory rate (%)
T24 construct: purchased Eurofins Pharma Discovery Services UK Limited (contract assay)
T24 sequence (P42336 whole entry): as the sequence (P42336 whole entry H1047R) above, with R1047H counted along it
T24 sequence (P27986 whole entry partner): as the sequence (P27986 whole entry partner) above
Description: as §1

PI3Kinase(p120γ)(h) = molecular target: T25, PI3Kinase(p120γ)(h) (Homo sapiens, UniProt P48736); details: read-out: Inhibitory rate (%)
T25 construct: purchased Eurofins Pharma Discovery Services UK Limited (contract assay)
Description: as §1

PIP5K1α(h) = molecular target: T26, PIP5K1α(h) (Homo sapiens, UniProt Q99755); details: read-out: Inhibitory rate (%)
T26 construct: purchased Eurofins Pharma Discovery Services UK Limited (contract assay)
Description: as §1

PIP5K1γ(h) = molecular target: T27, PIP5K1γ(h) (Homo sapiens, UniProt O60331); details: read-out: Inhibitory rate (%)
T27 construct: purchased Eurofins Pharma Discovery Services UK Limited (contract assay)
Description: as §1

PKA(h) = molecular target: T28, PKA(h) (Homo sapiens, UniProt P17612); details: read-out: Inhibitory rate (%)
T28 construct: purchased Eurofins Pharma Discovery Services UK Limited
Description: as §1

PKBα(h) = molecular target: T29, PKBα(h) (Homo sapiens, UniProt P31749); details: read-out: Inhibitory rate (%)
T29 construct: purchased Eurofins Pharma Discovery Services UK Limited
Description: as §1

PKBγ(h) = molecular target: T30, PKBγ(h) (Homo sapiens, UniProt Q9Y243); details: read-out: Inhibitory rate (%)
T30 construct: purchased Eurofins Pharma Discovery Services UK Limited
Description: as §1

PKCη(h) = molecular target: T31, PKCη(h) (Homo sapiens, UniProt P24723); details: read-out: Inhibitory rate (%)
T31 construct: purchased Eurofins Pharma Discovery Services UK Limited
Description: as §1

PKD2(h) = molecular target: T32, PKD2(h) (Homo sapiens, UniProt Q9BZL6); details: read-out: Inhibitory rate (%)
T32 construct: purchased Eurofins Pharma Discovery Services UK Limited
Description: as §1

Pim-1(h) = molecular target: T33, Pim-1(h) (Homo sapiens, UniProt P11309); details: read-out: Inhibitory rate (%)
T33 construct: purchased Eurofins Pharma Discovery Services UK Limited
T33 sequence (P11309 whole entry): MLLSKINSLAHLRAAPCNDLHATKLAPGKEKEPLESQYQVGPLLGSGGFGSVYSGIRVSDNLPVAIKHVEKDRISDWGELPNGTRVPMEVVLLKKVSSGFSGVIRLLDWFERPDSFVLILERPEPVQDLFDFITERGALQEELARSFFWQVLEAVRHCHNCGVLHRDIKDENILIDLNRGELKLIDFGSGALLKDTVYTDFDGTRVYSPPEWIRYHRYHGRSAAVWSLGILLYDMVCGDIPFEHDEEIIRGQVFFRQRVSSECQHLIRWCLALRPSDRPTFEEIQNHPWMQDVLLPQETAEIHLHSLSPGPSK
Description: as §1

Plk1(h) = molecular target: T34, Plk1(h) (Homo sapiens, UniProt P53350); details: read-out: Inhibitory rate (%)
T34 construct: purchased Eurofins Pharma Discovery Services UK Limited
Description: as §1

Rsk3(h) = molecular target: T35, Rsk3(h) (Homo sapiens, UniProt Q15349); details: read-out: Inhibitory rate (%)
T35 construct: purchased Eurofins Pharma Discovery Services UK Limited
Description: as §1

Syk(h) = molecular target: T36, Syk(h) (Homo sapiens, UniProt P43405); details: read-out: Inhibitory rate (%)
T36 construct: purchased Eurofins Pharma Discovery Services UK Limited
Description: as §1

mTOR(h) = molecular target: T37, mTOR(h) (Homo sapiens, UniProt P42345)
T37 construct: purchased Eurofins Pharma Discovery Services UK Limited (contract assay)
Description: as §1

mTOR/FKBP12(h) = molecular target: T38, mTOR/FKBP12(h) (Homo sapiens, UniProt P42345); details: read-out: Inhibitory rate (%)
T38 construct: purchased Eurofins Pharma Discovery Services UK Limited
Description: as §1

p70S6K(h) = molecular target: T39, p70S6K(h) (Homo sapiens, UniProt P23443); details: read-out: Inhibitory rate (%)
T39 construct: purchased Eurofins Pharma Discovery Services UK Limited
Description: as §1

inhibition at 10 µM (ASK1(h)): 4%
inhibition at 10 µM (Aurora-A(h)): 1%
inhibition at 10 µM (BTK(h)): 7%
inhibition at 10 µM (Blk(h)): -5%
inhibition at 10 µM (CDK3/cyclinE(h)): 7%
inhibition at 10 µM (CDK5/p35(h)): 0%
inhibition at 10 µM (CHK1(h)): -14%
inhibition at 10 µM (CHK2(h)): 4%
inhibition at 10 µM (CK1δ(h)): 7%
inhibition at 10 µM (DYRK2(h)): 1%
inhibition at 10 µM (EGFR(h)): 0%
inhibition at 10 µM (FAK(h)): 1%
inhibition at 10 µM (Fms(h)): -9%
inhibition at 10 µM (GSK3β(h)): 6%
inhibition at 10 µM (JAK2(h)): 7%
inhibition at 10 µM (JNK1α1(h)): 4%
inhibition at 10 µM (Lck(h)activated): -1%
inhibition at 10 µM (MARK1(h)): -1%
inhibition at 10 µM (MEK1(h)): -2%
inhibition at 10 µM (PDGFRβ(h)): -8%
inhibition at 10 µM (PDK1(h)): -1%
inhibition at 10 µM [1]: 3%
inhibition at 10 µM (PI3Kinase(p110α/p65α)(h)): 3%
inhibition at 10 µM (PI3Kinase(p110α/p85α)(h)): -1%
inhibition at 10 µM (PI3Kinase(p120γ)(h)): 2%
inhibition at 10 µM (PIP5K1α(h)): -2%
inhibition at 10 µM (PIP5K1γ(h)): -1%
inhibition at 10 µM (PKA(h)): -5%
inhibition at 10 µM (PKBα(h)): 4%
inhibition at 10 µM (PKBγ(h)): 8%
inhibition at 10 µM (PKCη(h)): 2%
inhibition at 10 µM (PKD2(h)): 11%
inhibition at 10 µM (Pim-1(h)): 3%
inhibition at 10 µM (Plk1(h)): 7%
inhibition at 10 µM (Rsk3(h)): 2%
inhibition at 10 µM (Syk(h)): 0%
Selectivity among 114 tumor-associated kinases (mTOR(h); 10 μM, in words): selectively inhibit the activity of mTOR
inhibition at 10 µM (mTOR(h); mTOR(h), read-out: Inhibitory rate (%)): 95%
inhibition at 10 µM (mTOR/FKBP12(h)): 33%
inhibition at 10 µM (p70S6K(h)): 3%
SMILES: C=C(C)n1c(=O)n(C(C)=O)c2ncc(Br)cc21 [FD162]
